According to patent US6734139B1, “N-aryl-uracile-based herbicides” (priority 1999, dated 2004):
Several values for one entry are separate records, joined by “and”; a condition that tells them apart may be missing. Equal values may be shown once.

Columns and labels:
Type in all cases: in vivo
maize = test: Pre-emergence test in maize (crop plant compatibility); details: for Average damage (%): maize, pre-emergence, 0.1% Renex-36
Method: (§1) Solvent: 2 to 3 parts by weight of acetone or N,N-dimethyl-formamide
(§2) Emulsifier: 1 part by weight of alkylaryl polyglycol ether
(§3) To produce a suitable preparation of active compound, 1 part by weight of active compound is mixed with the stated amount of solvent, the stated amount of emulsifier is added and the concentrate is diluted with water to the desired concentration. Formulated products are dissolved in water and then diluted with water to the desired concentration.
(§4) The solutions of the other mixing components (active compounds or safeners) are prepared analogously. The separately prepared solutions of the various mixing components are then combined and, if appropriate, additional substances (formulation auxiliaries, additives, etc.) are added and, if appropriate, water is added to prepare the desired dilution.
(§5) Seeds of the test plants are sown in standard soil. After 24 hours, the soil is sprayed with the preparation of active compound such that the particular amount of active compound desired in each case is applied per unit area. The concentration of active compound in the spray liquor is chosen such that the particular amount of active compound desired in each case is applied in 500 litres of water per hectare. The containers with the test plants are kept in a greenhouse at controlled temperature and controlled illumination until evaluation.
(§6) 0%=no effect/no damage (like untreated control)

Veronica = test: Post-emergence test (herbicidal action, Colby): Veronica
Excerpt: (§7) The expected action for a given combination of two herbicides can be calculated as follows (cf. COLBY, S. R.: “Calculating synergistic and antagonistic responses of herbicide combinations”, Weeds 15, Pages 20-22, 1967):
(§8) If the actual damage exceeds the calculated value, the combination has a superadditive effect, that is to say a synergistic effect.
as §3, §4
(§9) After three weeks, the degree of damage to the plants is rated in % damage in comparison to the development of the untreated control. The figures denote
as §6

Solanum = test: Post-emergence test (herbicidal action, Colby): Solanum
Excerpt: as §7, §8, §3, §4, §9, §6

weeds = test: Pre-emergence test (herbicidal action against weeds, Colby)
Excerpt: as §7, §8
The theoretically expected activity for a given combination of three herbicides can likewise be found in the literature mentioned above.
as §1, §2, §3, §4, §5, §9, §6

Datura [1] = test: Post-emergence test (herbicidal action, Colby): Datura
Abutilon [2] = test: Post-emergence test (herbicidal action, Colby): Abutilon; details: 4 g of a.i./ha
Chenopodium [3] = test: Post-emergence test (herbicidal action, Colby): Chenopodium; details: 4 g of a.i./ha
Matricaria [4] = test: Post-emergence test (herbicidal action, Colby): Matricaria; details: 4 g of a.i./ha
Polygonum [5] = test: Post-emergence test (herbicidal action, Colby): Polygonum; details: 8 g of a.i./ha
Alopecurus = test: Pre-emergence test (herbicidal action, Colby): Alopecurus
Cyperus = test: Pre-emergence test (herbicidal action, Colby): Cyperus
Digitaria = test: Pre-emergence test (herbicidal action, Colby): Digitaria
Echinochloa = test: Pre-emergence test (herbicidal action, Colby): Echinochloa
Setaria = test: Pre-emergence test (herbicidal action, Colby): Setaria
Abutilon [6] = test: Pre-emergence test (herbicidal action, Colby): Abutilon
Matricaria [7] = test: Pre-emergence test (herbicidal action, Colby): Matricaria
Polygonum [8] = test: Pre-emergence test (herbicidal action, Colby): Polygonum
Stellaria = test: Pre-emergence test (herbicidal action, Colby): Stellaria; details: 4 g of a.i./ha
Ipomoea = test: Pre-emergence test (herbicidal action, Colby): Ipomoea
Viola = test: Pre-emergence test (herbicidal action, Colby): Viola; details: 8 g of a.i./ha
Datura [9] = test: Pre-emergence test (herbicidal action, Colby): Datura; details: 4 g of a.i./ha
Chenopodium [10] = test: Pre-emergence test (herbicidal action, Colby): Chenopodium; details: 4 g of a.i./ha
Eriochloa = test: Pre-emergence test (herbicidal action, Colby): Eriochloa
Cassia = test: Pre-emergence test (herbicidal action, Colby): Cassia; details: 4 g of a.i./ha
Bromus = test: Pre-emergence test (herbicidal action, Colby): Bromus; details: 4 g of a.i./ha
Galium = test: Pre-emergence test (herbicidal action, Colby): Galium; details: 8 g of a.i./ha
Lolium = test: Pre-emergence test (herbicidal action, Colby): Lolium; details: 8 g of a.i./ha
[11] = single active compound at 4 g of a.i./ha

CCS(=O)(=O)N(C(=O)C(C)(C)C)c1cc(-n2c(=O)cc(C(F)(F)F)n(C)c2=O)c(F)cc1C#N [I-3, N-[2-cyano-4-fluoro-5-(3-methyl-2,6-dioxo-4-trifluoromethyl-3,6-dihydro-1(2H)-pyrimidinyl)-phenyl]-N-(2,2-dimethyl-propanoyl)-1-ethanesulphonamide]
Maize (7 days) (maize; Table A28, 60 g of a.i./ha): 10% | Maize (12 days) (maize; Table A28, 60 g of a.i./ha): 20% | Maize (21 days) (maize; Table A28, 60 g of a.i./ha): 17% | Maize (7 days) (maize; Table A28, 90 g of a.i./ha): 20% | Maize (21 days) (maize; Table A28, 90 g of a.i./ha): 36% | Maize (12 days) (maize; Table A29, 60 g of a.i./ha): 20% | Maize (12 days) (maize; Table A29, 90 g of a.i./ha): 30% | Maize (21 days) (maize; Table A29, 90 g of a.i./ha): 36% | Maize (7 days) (maize; Table A31, 90 g of a.i./ha): 20% | Maize (12 days) (maize; Table A31, 90 g of a.i./ha): 30% | Maize (21 days) (maize; Table A31, 90 g of a.i./ha): 29% | Average damage (%) (maize; active compound 1 alone at 60 g of a.i./ha): 17% | Average damage (%) (maize; active compound 1 alone at 90 g of a.i./ha): 36% | Veronica (Veronica; 4 g of a.i./ha): 0% | Veronica (Veronica; 8 g of a.i./ha): 70% | damage, Veronica (Veronica; [11]): 0% | damage, Veronica (Veronica; single active compound at 8 g of a.i./ha): 70% | Solanum (Solanum; 4 g of a.i./ha): 30% | damage, Solanum (Solanum; [11]): 30% | Chenopodium (pre-emergence test) (weeds; Table 23, 4 g of a.i./ha): 80 | Galium (pre-emergence test) (weeds; Table 23, 4 g of a.i./ha): 0 | Lolium (pre-emergence test) (weeds; Table 23, 4 g of a.i./ha): 0 | Setaria (pre-emergence test) (weeds; Table 23, 4 g of a.i./ha): 0 | Eriochloa (pre-emergence test) (weeds; Table 23, 8 g of a.i./ha): 50 | Ipomoea (pre-emergence test) (weeds; Table 23, 8 g of a.i./ha): 30 | Setaria (pre-emergence test) (weeds; Table 23, 8 g of a.i./ha): 0 | Chenopodium (pre-emergence test) (weeds; Table A20, 4 g of a.i./ha): 80 | Datura (pre-emergence test) (weeds; Table A20, 4 g of a.i./ha): 0 | Ipomoea (pre-emergence test) (weeds; Table A20, 4 g of a.i./ha): 30 | Lolium (pre-emergence test) (weeds; Table A20, 4 g of a.i./ha): 0 | Datura (pre-emergence test) (weeds; Table A20, 8 g of a.i./ha): 30 | Galium (pre-emergence test) (weeds; Table A20, 8 g of a.i./ha): 20 | Ipomoea (pre-emergence test) (weeds; Table A20, 8 g of a.i./ha): 30 | Chenopodium (pre-emergence test) (weeds; Table A21, 4 g of a.i./ha): 80 | Datura (pre-emergence test) (weeds; Table A21, 4 g of a.i./ha): 0 | Polygonum (pre-emergence test) (weeds; Table A21, 4 g of a.i./ha): 40 | Ipomoea (pre-emergence test) (weeds; Table A21, 8 g of a.i./ha): 30 | Polygonum (pre-emergence test) (weeds; Table A21, 8 g of a.i./ha): 90 | Datura (pre-emergence test) (weeds; Table A22, 4 g of a.i./ha): 0 | Polygonum (pre-emergence test) (weeds; Table A22, 4 g of a.i./ha): 40 | Cassia (pre-emergence test) (weeds; Table A22, 8 g of a.i./ha): 50 | Cassia (pre-emergence test) (weeds; Table A24, 4 g of a.i./ha): 0 | Echinochloa (pre-emergence test) (weeds; Table A24, 4 g of a.i./ha): 30 | Lolium (pre-emergence test) (weeds; Table A24, 4 g of a.i./ha): 0 | Veronica (pre-emergence test) (weeds; Table A24, 4 g of a.i./ha): 30 | Echinochloa (pre-emergence test) (weeds; Table A24, 8 g of a.i./ha): 30 | Setaria (pre-emergence test) (weeds; Table A24, 8 g of a.i./ha): 30 | Bromus (pre-emergence test) (weeds; Table A25, 4 g of a.i./ha): 0 | Avena (pre-emergence test) (weeds; Table A25, 8 g of a.i./ha): 40 | Cyperus (pre-emergence test) (weeds; Table A25, 8 g of a.i./ha): 50 | Lolium (pre-emergence test) (weeds; Table A25, 8 g of a.i./ha): 60 | Avena (pre-emergence test) (weeds; Table A26, 4 g of a.i./ha): 40 | Digitaria (pre-emergence test) (weeds; Table A26, 4 g of a.i./ha): 30 | Echinochloa (pre-emergence test) (weeds; Table A26, 4 g of a.i./ha): 0 | Lolium (pre-emergence test) (weeds; Table A26, 4 g of a.i./ha): 30 | Matricaria (pre-emergence test) (weeds; Table A26, 4 g of a.i./ha): 30 | Setaria (pre-emergence test) (weeds; Table A26, 4 g of a.i./ha): 0 | Cassia (pre-emergence test) (weeds; Table A26, 8 g of a.i./ha): 30 | Echinochloa (pre-emergence test) (weeds; Table A26, 8 g of a.i./ha): 30 | Lolium (pre-emergence test) (weeds; Table A26, 8 g of a.i./ha): 30 | Matricaria (pre-emergence test) (weeds; Table A26, 8 g of a.i./ha): 70 | Setaria (pre-emergence test) (weeds; Table A26, 8 g of a.i./ha): 30 | Abutilon (pre-emergence test) (weeds; Table A27, 8 g of a.i./ha): 95 | Cassia (pre-emergence test) (weeds; Table A27, 8 g of a.i./ha): 30 | Polygonum (pre-emergence test) (weeds; Table A27, 8 g of a.i./ha): 20 | Datura (Datura [1]; 4 g of a.i./ha): 30% | Datura (Datura [1]; 8 g of a.i./ha): 60% | Abutilon (Abutilon [2]): 0% | Chenopodium (Chenopodium [3]): 0% | Matricaria (Matricaria [4]): 70% | Polygonum (Polygonum [5]): 60% | Alopecurus (Alopecurus; 4 g of a.i./ha): 0% | Alopecurus (Alopecurus; 8 g of a.i./ha): 0% | Cyperus (Cyperus; 4 g of a.i./ha): 0% | Cyperus (Cyperus; 8 g of a.i./ha): 30% | Digitaria (Digitaria; 4 g of a.i./ha): 0% | Digitaria (Digitaria; 8 g of a.i./ha): 20% | Echinochloa (Echinochloa; 4 g of a.i./ha): 0% | Echinochloa (Echinochloa; 8 g of a.i./ha): 0% | Setaria (Setaria; 4 g of a.i./ha): 0% | Setaria (Setaria; 8 g of a.i./ha): 0% | pest or weed control at 4 g/ha (Abutilon [6]; 4 g of a.i./ha): 20% | pest or weed control at 8 g/ha (Abutilon [6]; 8 g of a.i./ha): 50% | Matricaria (Matricaria [7]; 4 g of a.i./ha): 50% | Matricaria (Matricaria [7]; 8 g of a.i./ha): 90% | Polygonum (Polygonum [8]; 4 g of a.i./ha): 0% | Polygonum (Polygonum [8]; 8 g of a.i./ha): 90% | Stellaria (Stellaria): 80% | Ipomoea (Ipomoea; 4 g of a.i./ha): 30% and 50% | Ipomoea (Ipomoea; 8 g of a.i./ha): 30% | Viola (Viola): 90% | Datura (Datura [9]): 30% | Chenopodium (Chenopodium [10]): 80% | Eriochloa (Eriochloa; 4 g of a.i./ha): 30% | Eriochloa (Eriochloa; 8 g of a.i./ha): 50% | Cassia (Cassia): 40% | Bromus (Bromus): 0% | Galium (Galium): 30% | Lolium (Lolium): 20%
